From patent EP0745599A2, “1-(3-Heterocyclylphenyl)-s-triazine-2,4,6-oxo or thiotrione herbicidal agents” (American Cyanamid Company, priority 1995, dated 1996)

Columns and labels:
Format in all cases: in vivo
Conditions in all cases: rated four to five weeks after treatment
[1] = system: TRITICUM AESTIVUM, CV. APOLLO; test: Preemergence herbicidal evaluation, TRZAWO (Wheat, Winter, CV. APOLLO); design: key to TRZAWO: visual rating scale 0-9 vs control
From the text: (§1) Results of herbicide evaluation are expressed on a rating scale (0-9). The scale is based upon a visual observation of plant stand, vigor, malformation, size, chlorosis and overall plant appearance as compared with a control.
(§2) The preemergence herbicidal activity of the test compounds of the present invention is exemplified by the following tests in which the seeds of a variety of monocotyledonous and dicotyledonous plants are separately mixed with potting soil and planted on top of approximately one inch of soil in separate pint cups. After planting, the cups are sprayed with the selected aqueous acetone solution containing test compound in sufficient quantity to provide the equivalent of about 0.125 to 0.50 kg per hectare of test compound per cup. The treated cups are then placed on greenhouse benches, watered and cared for in accordance with conventional greenhouse procedures. From four to five weeks after treatment, the tests are terminated and each cup is examined and rated according to the rating system provided in Example 42.

[2] = system: SETARIA VIRIDIS, (L) BEAU; test: Postemergence herbicidal evaluation, SETVI (Foxtail, Green)
Protocol: (§3) In the tests, seedling plants are grown in jiffy flats for about two weeks. The test compounds are dispersed in 50/50 acetone/water mixtures containing 0.5% TWEEN®20, a polyoxyethylene sorbitan monolaurate surfactant of Atlas Chemical Industries, in sufficient quantities to provide the equivalent of about 0.125 kg to 0.500 kg per hectare of active compound when applied to the plants through a spray nozzle operating at 40 psi for a predetermined time. After spraying, the plants are placed on greenhouse benches and are cared for in the usual manner, commensurate with conventional greenhouse practices. From four to five weeks after treatment, the seedling plants are examined and rated according to the rating system set forth below. Where more than one test is involved for a given compound, the data are averaged.
as §1

CASSIA OBTUSIFOLIA, L. = test: Preemergence herbicidal evaluation, CASOB (Sicklepod); design: key to CASOB: visual rating scale 0-9 vs control
From the text: as §1, §2

[3] = system: AMBROSIA ARTEMISIIFOLIA, L.; test: Preemergence herbicidal evaluation, AMBEL (Ragweed, Common); design: key to AMBEL: visual rating scale 0-9 vs control
From the text: as §1, §2

[4] = system: GLYCINE MAX(L)MERR. CV. WILLIAMS; test: Preemergence herbicidal evaluation, GLXMAW (Soybean, Williams); design: key to GLXMAW: visual rating scale 0-9 vs control
From the text: as §1, §2

IPOMOEA SPP. = test: Preemergence herbicidal evaluation, IPOSS (Morningglory Spp.); design: key to IPOSS: visual rating scale 0-9 vs control
From the text: as §1, §2

[5] = system: ABUTILON THEOPHRASTI, MEDIC.; test: Preemergence herbicidal evaluation, ABUTH (Velvetleaf); design: key to ABUTH: visual rating scale 0-9 vs control
From the text: as §1, §2

CHENOPODIUM ALBUM, L. = test: Preemergence herbicidal evaluation, CHEAL (Lambsquarters, Common); design: key to CHEAL: visual rating scale 0-9 vs control
From the text: as §1, §2

ZEA MAYS L. = test: Preemergence herbicidal evaluation, ZEAMX (Corn, Field); design: key to ZEAMX: visual rating scale 0-9 vs control
From the text: as §1, §2

[6] = system: SETARIA VIRIDIS, (L) BEAU; test: Preemergence herbicidal evaluation, SETVI (Foxtail, Green); design: key to SETVI: visual rating scale 0-9 vs control
From the text: as §1, §2

[7] = system: ABUTILON THEOPHRASTI, MEDIC.; test: Postemergence herbicidal evaluation, ABUTH (Velvetleaf)
Protocol: as §3, §1

[8] = system: ECHINOCHLOA CRUS-GALLI, (L) BEAU; test: Preemergence herbicidal evaluation, ECHCG (Barnyardgrass); design: key to ECHCG: visual rating scale 0-9 vs control
From the text: as §1, §2

[9] = system: TRITICUM AESTIVUM, CV. APOLLO; test: Postemergence herbicidal evaluation, TRZAWO (Wheat, Winter, CV. APOLLO)
Protocol: as §3, §1

[10] = system: ECHINOCHLOA CRUS-GALLI, (L) BEAU; test: Postemergence herbicidal evaluation, ECHCG (Barnyardgrass)
Protocol: as §3, §1

[11] = system: ORYZA SATIVA, L. TEBONNET; test: Preemergence herbicidal evaluation, ORYSAT (Rice, Tebonnet); design: key to ORYSAT: visual rating scale 0-9 vs control
From the text: as §1, §2

GALIUM APARINE = test: Preemergence herbicidal evaluation, GALAP (Galium); design: key to GALAP: visual rating scale 0-9 vs control
From the text: as §1, §2

CC(C)OC(=O)Cn1c(=O)n(C)c(=O)n(-c2cc(N=c3sc(=O)n4n3CCCC4)c(F)cc2Cl)c1=O [Compound 13, Isopropyl 3-{2-chloro-4-fluoro-5-[(tetra-hydro-3-oxo-1H,3H-[1,3,4]thiadiazolo[3,4-a]pyridazin-1-ylidene)amino]phenyl}tetra-hydro-5-methyl-2,4,6-trioxo-s-triazine-1(2H)-acetate]
3.5: Herbicide rating (0-9) TRZAWO ([9]; 0.125 kg/ha) | Herbicide rating (0-9) TRZAWO ([9]; 0.250 kg/ha) | Herbicide rating (0-9) TRZAWO ([9]; 0.500 kg/ha)
9.0: CASOB (CASSIA OBTUSIFOLIA, L.; Rate 0.250 kg/ha) | CASOB (CASSIA OBTUSIFOLIA, L.; Rate 0.500 kg/ha) | ABUTH ([5]; Rate 0.125 kg/ha) | ABUTH ([5]; Rate 0.250 kg/ha) | ABUTH ([5]; Rate 0.500 kg/ha) | CHEAL (CHENOPODIUM ALBUM, L.; Rate 0.125 kg/ha) | CHEAL (CHENOPODIUM ALBUM, L.; Rate 0.250 kg/ha) | CHEAL (CHENOPODIUM ALBUM, L.; Rate 0.500 kg/ha) | Herbicide rating (0-9) ABUTH ([7]; 0.125 kg/ha) | Herbicide rating (0-9) ABUTH ([7]; 0.250 kg/ha) | Herbicide rating (0-9) ABUTH ([7]; 0.500 kg/ha) | GALAP (GALIUM APARINE; Rate 0.125 kg/ha) | GALAP (GALIUM APARINE; Rate 0.500 kg/ha)
8.0: AMBEL ([3]; Rate 0.500 kg/ha) | GALAP (GALIUM APARINE; Rate 0.250 kg/ha)
5.0: CASOB (CASSIA OBTUSIFOLIA, L.; Rate 0.125 kg/ha) | IPOSS (IPOMOEA SPP.; Rate 0.250 kg/ha)
1.0: TRZAWO ([1]; Rate 0.500 kg/ha) | Herbicide rating (0-9) SETVI ([2]; 0.125 kg/ha) | Herbicide rating (0-9) SETVI ([2]; 0.250 kg/ha) | Herbicide rating (0-9) SETVI ([2]; 0.500 kg/ha) | ZEAMX (ZEA MAYS L.; Rate 0.500 kg/ha) | ORYSAT ([11]; Rate 0.250 kg/ha)
7.0: SETVI ([6]; Rate 0.250 kg/ha) | SETVI ([6]; Rate 0.500 kg/ha)
3.0: AMBEL ([3]; Rate 0.250 kg/ha)
2.0: IPOSS (IPOMOEA SPP.; Rate 0.125 kg/ha) | ORYSAT ([11]; Rate 0.500 kg/ha)
6.0: IPOSS (IPOMOEA SPP.; Rate 0.500 kg/ha)
0.0: TRZAWO ([1]; Rate 0.125 kg/ha) | TRZAWO ([1]; Rate 0.250 kg/ha) | AMBEL ([3]; Rate 0.125 kg/ha) | GLXMAW ([4]; Rate 0.125 kg/ha) | GLXMAW ([4]; Rate 0.250 kg/ha) | GLXMAW ([4]; Rate 0.500 kg/ha) | ZEAMX (ZEA MAYS L.; Rate 0.125 kg/ha) | ZEAMX (ZEA MAYS L.; Rate 0.250 kg/ha) | SETVI ([6]; Rate 0.125 kg/ha) | ECHCG ([8]; Rate 0.125 kg/ha) | ECHCG ([8]; Rate 0.250 kg/ha) | ECHCG ([8]; Rate 0.500 kg/ha) | Herbicide rating (0-9) ECHCG ([10]; 0.125 kg/ha) | Herbicide rating (0-9) ECHCG ([10]; 0.250 kg/ha) | Herbicide rating (0-9) ECHCG ([10]; 0.500 kg/ha) | ORYSAT ([11]; Rate 0.125 kg/ha)

COC(=O)Cn1c(=O)n(C)c(=O)n(-c2cc(N3C(=O)C4=C(CCCC4)C3=O)c(F)cc2Cl)c1=O [Compound 1, Methyl 3-[2-Chloro-5-(1-cyclohexene-1,2-dicarboximido)-4-fluorophenyl]tetrahydro-5-methyl-2,4,6-trioxo-s-triazine-1(2H)-acetate]
9.0: Herbicide rating (0-9) CHEAL (CHENOPODIUM ALBUM, L.; 0.125 kg/ha) | Herbicide rating (0-9) CHEAL (CHENOPODIUM ALBUM, L.; 0.250 kg/ha) | Herbicide rating (0-9) CHEAL (CHENOPODIUM ALBUM, L.; 0.500 kg/ha) | Herbicide rating (0-9) ABUTH ([7]; 0.125 kg/ha) | Herbicide rating (0-9) ABUTH ([7]; 0.250 kg/ha) | Herbicide rating (0-9) ABUTH ([7]; 0.500 kg/ha)
0.0: Herbicide rating (0-9) TRZAWO ([1]; 0.125 kg/ha) | Herbicide rating (0-9) TRZAWO ([1]; 0.250 kg/ha) | Herbicide rating (0-9) TRZAWO ([1]; 0.500 kg/ha) | Herbicide rating (0-9) GLXMAW ([4]; 0.125 kg/ha) | Herbicide rating (0-9) GLXMAW ([4]; 0.250 kg/ha) | Herbicide rating (0-9) GLXMAW ([4]; 0.500 kg/ha) | Herbicide rating (0-9) ZEAMX (ZEA MAYS L.; 0.125 kg/ha) | Herbicide rating (0-9) ZEAMX (ZEA MAYS L.; 0.250 kg/ha) | Herbicide rating (0-9) ZEAMX (ZEA MAYS L.; 0.500 kg/ha) | Herbicide rating (0-9) ORYSAT ([11]; 0.125 kg/ha) | Herbicide rating (0-9) ORYSAT ([11]; 0.250 kg/ha) | Herbicide rating (0-9) ORYSAT ([11]; 0.500 kg/ha) | Herbicide rating (0-9) GALAP (GALIUM APARINE; 0.250 kg/ha) | Herbicide rating (0-9) GALAP (GALIUM APARINE; 0.500 kg/ha)
